How the values were obtained:
[1] = tested on: D6 (CQ^S) P. falciparum strain; experiment: In vitro fluorescence (Sybr Green I) growth inhibition assay, D6 strain; type: cell-based; settings: Plasmodium falciparum, D6; Table 13; growth inhibition; read-out: IC50 (nM) D6 (CQ^S)
Excerpt: One exemplary method for measuring inhibitory effects of RCQ compound in vitro has been reported by Smilkstein et al. (Antimicrob. Agents Chemother., 48(5):1803-1806, 2004). This method employs fluorescent detection of the level of parasitemia in cultured red blood cells and can be automated for high-throughput screening of antimalarial RCQs. This exemplary method allows the inhibitory agent (such as a RCQ) to be in contact with the parasite for an entire developmental cycle without purine starvation, which is in contrast to the traditional ^3H-hypoxanthine method (Desjardins et al., Antimicrob. Agents Chemother., 16(6):710-718, 1979). Briefly, to perform the Smilkstein et al. method, an initial parasitemia of approximately 0.2% is attained by adding uninfected red blood cells (RBCs) to a stock culture of Plasmodium sp.-infected RBCs. […] After a period of incubation (such as about 72 hours), a sufficient amount (e.g., 100 μL) of a fluorescent DNA binding dye-detergent mixture (e.g., Sybr Green I dye-detergent mixture) to lyse cells and bind to DNA is added to the reactions. Because uninfected RBCs have no DNA, only parasite DNA (in infected RBCs) is available for binding to the fluorescent dye (e.g., Sybr Green I). Samples are then incubated in the dark for a period of time (e.g., one hour), followed by measurement of levels of fluorescence. For Sybr Green I, excitation and emission wavelength are 485 and 530 nm, respectively. Fluorescence readings, which represent the amount of parasite DNA in the sample, can be plotted against the Log [drug] and fit to a curve by nonlinear regression to obtain the IC50 value for the tested compound.
An in vitro fluorescence assay for determining IC50 of antimalarial drugs was performed as previously described by Smilkstein et al. (Antimicrob. Agents Chemother., 48(5):1803-1806, 2004). This relatively low-cost procedure can be automated for high-throughput screening of the antimalarial activities of RCQs described herein. Advantageous, this method also allows the tested agent (e.g, a RCQ) to be in contact with the parasite for an entire developmental cycle without purine starvation (which occurs with the commonly used ^3H-hypoxanthine method; see, e.g., Desjardins et al., Antimicrob. Agents Chemother., 16, (6):[…], 1979).
Briefly, an initial parasitemia of approximately 0.2% was attained by addition of uninfected red blood cells to a stock culture of cells infected with Dd2 (CQ^R) or D6 (CQ^S) P. falciparum strains. A 10 mM RCQ_02 solution (in DMSO) was prepared. RCQ_02 (at a final concentration from 10^−11 to 10^−4 M) and infected red blood cells (at a final concentration of 2% (v/v)) were mixed in 100 μL samples in individual wells of a 96-well plate. Each sample was prepared in triplicate. A triplicate set of reactions containing CQ (instead of RCQ_02) was included as a control. After a 72 hour incubation period, Sybr Green I dye-detergent mixture (100 μL) was added to each reaction. The samples were further incubated for an hour in the dark, and then placed in a 96-well fluorescence plate reader (Gemini-EM, […]) and analyzed with excitation and emission wavelength bands at 485 and 530 nm, respectively. Fluorescence readings were plotted against the Log [drug], and curve fitting performed by nonlinear regression to find the IC50 value.

[2] = Heme binding by UV-VIS spectrophotometric titration (association constant); settings: pH 5.7; heme assumed dimeric (μ-oxo)
Excerpt: Optionally, heme binding of RCQ compounds can be determined by any method known in the art, including, for example, spectrophotometric methods, like UV-VIS spectroscopy or NMR spectroscopy. Methods of measuring heme binding to a variety of molecules using the UV-VIS spectrum have been described (see, e.g., Xu et al., J. Inorg. Biochem., 86 (2-3):617-625, 2001; Xu et al., Antimicrob. Agents Chemother., 46(1):144-150, 2002). Generally, a heme-binding compound (such as a disclosed RCQ) is mixed in increasing concentration with heme (or a heme model compound, such as porphyrin or metalloporphyrin) and the absorbance spectrum is measured from the ultraviolet region well into the visible region (from about 300 nm to about 750 nm). This spectral range includes the so-called Soret and Q-band regions that arise from porphyrin or metalloporphyrin absorbance. Upon interaction between a heme-binding compound and heme (or a heme model compound, such as porphyrin or metalloporphyrin), decreased absorbance in the Soret region is observed. […]
In particular examples, the formation of heme-RCQ complexes can be determined by UV-VIS spectrophotometric titration, using a variety of commercially available spectrophotometers (such as a Varian-Cary 3E spectrophotometer). […] Optionally, pH can be monitored throughout the procedure to ensure that it remains unchanged. […]

heme2.RCQ_02 association constant [2]: approximately 7.5×10^5 M^−1
SMILES: CN(CCCNc1ccnc2cc(Cl)ccc12)CCCN1c2ccccc2CCc2ccccc21 [RCQ_02, N′-(7-Chloro-quinolin-4-yl)-N-[3-(10,11-dihydro-dibenzo[b,f]azepin-5-yl)-propyl]-N-methyl-propane-1,3-diamine]
IC50 [1]: 2.9 nM

From patent US9493420B2, “Quinoline derivatives and uses thereof” (Portland State University, priority 2005, dated 2016)
